Assay results: patent publication US12151017B2, “Compositions and methods for hair regrowth” (Nutraceutical Wellness, Inc., priority 2015, dated 2024)

Tested on: hair loss, Stage III Vertex/Stage IV MPHL
Assay: Example 1: single subject given the components cumulatively over 7 months
Assay type: in vivo, human
Conditions: taken before the implementations of the disclosure
Procedure: During month 4, the subject was additionally given a daily 250 mg dose of Ashwagandha extracted from Withania somnifera, containing at least 8% withanolide glycosides and 32% oligosaccharides from the roots and leaves (Sensoril®, Natreon, New Brunswick, NJ) for stress associated with their condition and work. […] During month 5, the subject was additionally given a daily dose of Certified Organic saw palmetto extract Standardized 85-95% fatty acids (Valensa Eustis, FL) in the amount of 640 mg a day. […] During month 6, the subject added a 100 mg dose of tocotrienol/tocopherol complex comprising 78% tocotrienols and 22% tocopherols (Tocomax™ 20%, Carotech, Malaysia) a day. […] Lastly, in month 7, They were additionally given approximately 1000 mg of hydrolyzed marine collagen Types I and III (Youtheory, Tustin, CA) and 100 mg of hyaluronic acid (NOW Foods, Bloomingdale, IL).

SMILES | hair outcome of earlier treatments (subject's history)
O=C(O)CCCC[C@@H]1SC[C@@H]2NC(=O)N[C@@H]21 [biotin] | did not result in a noticeable cessation of hair loss or new hair growth
CC(C)(C)NC(=O)[C@H]1CC[C@H]2[C@@H]3CC[C@H]4NC(=O)C=C[C@]4(C)[C@H]3CC[C@]12C [finasteride] | improvement was minimal
